Laboratory results: patent publication US8563586B2, “1,(3,)5-substituted imidazoles, their use in the treatment of hypertension and methods for their preparation” (Eldrug S.A., priority 2007, dated 2013)
“Also recorded” adds a separate entry of the source.

Legend:
[1] = test system: anesthetized rabbits made hypertensive by AII infusion; assay: In vivo: anesthetized rabbits made hypertensive by AII infusion, IV boluses of compound; set-up: species or system New Zealand White rabbits; details: for AII antagonistic effect: doses of 2 and 3.5 mol, cumulative IV boluses, potency order 22, 20, 15, 18, 23, 21, 30, 29; for in vivo antihypertensive potency / activity, relative, in words: anesthetized rabbits, angiotensin II-induced hypertension
Description: The applicant has also established an in vivo assay using anesthetized rabbits in [Onassis 30 Cardiac Institute] which allows us to estimate relative potencies.
The assay is a routine assay and constitutes a convenient method to measure activities of AII antagonists.
In vivo experiments: Adult normotensive male New Zealand White rabbits weighing between 2.5 and 3.3 kg were used in the study following previously described methods.^46,47 In brief, animals were anesthetized by pentobarbitone (30 mg/kg), intubated and mechanically ventilated with 100% oxygen using a respirator for small animals (MD Industries, Mobile, Ala., USA). The tidal volume was 15 ml and the rate was adjusted to keep blood gases within normal rage. Two polyethylene catheters were inserted, one in the carotid artery for continuous blood pressure monitoring via a transducer attached to a multichannel recorder (Nihon-Kohden, Model 6000, Japan) and the other one in the jugular vein for the administrations of solution made by diluting Angiotensin II (AII) (Hypertensin, CIBA) in 5% dextrose at final concentration of 5 µg/ml. Based on previous testing with this rabbit preparation submaximal angiotensin II-dependent hypertension was induced by infusing Angiotensin via a syringe pump (Harvard Apparatus Pump 22, Harvard Apparatus, Natick. Mass., USA) at a constant rate of 0.2 ml/min ([…]). […] Five minutes after the establishment of hypertension, two cumulative IV boluses of each compound (2 and 3.5 mol) were given via an ear vein 20 minutes apart. The blood pressure was monitored for 20 minutes after the second bolus and then angiotensin infusion was halted and blood pressure was recorded for an additional period of 20 minutes until the end of the experiment. Boluses of the same dose of Losartan, as positive control, were used in the same experimental model.
The antihypertensive effect and the degree of potency of these compounds were tested in a preparation of anesthetized rabbits made hypertensive by AII infusion.

[2] = test system: conscious rabbits made hypertensive by angiotensin II infusion; details: 15 mg mixed with vaseline applied on bare skin
Excerpt: Conscious rabbits were made hypertensive by angiotensin II infusion. A mixture of 1 5 mgr of our lipophilic angiotensin II receptor blocker compound 20 (or its dialkylated counterpart) with vaseline was applied on bare skin.

human AT1 = biological target: T1, human AT1 (Homo sapiens, UniProt P30556); assay: In vitro binding, membranes containing AT1 receptor, radioligand [125I]Sar1,Ile8-Angiotensin II
T1 construct: purchased PerkinElmer Life Sciences, Inc., Boston, Mass., USA
T1 sequence (P30556 1-359): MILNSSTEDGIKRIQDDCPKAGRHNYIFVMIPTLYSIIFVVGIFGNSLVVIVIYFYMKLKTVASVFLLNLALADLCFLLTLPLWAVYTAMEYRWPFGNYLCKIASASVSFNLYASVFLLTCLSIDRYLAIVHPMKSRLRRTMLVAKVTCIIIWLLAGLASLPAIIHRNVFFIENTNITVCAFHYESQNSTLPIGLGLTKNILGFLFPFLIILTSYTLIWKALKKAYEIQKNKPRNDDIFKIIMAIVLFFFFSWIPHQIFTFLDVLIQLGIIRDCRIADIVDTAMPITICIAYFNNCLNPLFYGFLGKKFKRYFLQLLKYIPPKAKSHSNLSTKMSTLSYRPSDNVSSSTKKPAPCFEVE

rat isolated uterus = details: cited from earlier work
anesthesized rabbits = details: rabbit, in vivo; cited from earlier work

**Q.** Which AII antagonistic effect [1] does the source give for Cc1cn(C(c2ccccc2)(c2ccccc2)c2ccccc2)cn1 [Compound 15, 3-(Triphenylmethyl)-5-methylimidazole] here?
**A.** dose-dependent AII antagonistic effect

**Q.** What does the source list for CCCCc1cncn1Cc1ccc(-c2ccccc2-c2nnn(C(c3ccccc3)(c3ccccc3)c3ccccc3Cl)n2)cc1 [Compound 18, 5-Butyl-1-[[2′-[[N-(2-chloro-triphenylmethyl)]tetrazol-5-yl]biphenyl-4-yl]methyl]imidazole]?
**A.** in vivo antihypertensive potency / activity, relative, in words [1]: more potent; also recorded: less potent compared to 20 and 25; AII antagonistic effect [1]: dose-dependent AII antagonistic effect

**Q.** With CCCCc1cnc(CO)n1Cc1ccc(-c2ccccc2-c2nnn(C(c3ccccc3)(c3ccccc3)c3ccccc3Cl)n2)cc1 [Compound 20, 5-Butyl-2-hydroxymethyl-1-[[2′-[[N-(2-chloro-triphenylmethyl)]tetrazol-5yl]biphenyl-4-yl]methyl]imidazole] as the molecule, how does the “blood pressure lowered by” value [2] read?
**A.** 20 mmHg

**Q.** What about the “duration of blood pressure lowering” value [2] of the same molecule?
**A.** two

**Q.** What about the “affinity for AT1 receptor, in words, relative to Losartan” value (human AT1; in vitro binding studies) of the same molecule?
**A.** lower affinity

**Q.** And the “in vivo antihypertensive potency / activity, relative, in words” value [1]?
**A.** highly potent; also recorded: more potent compared to 18; also recorded: most potent

**Q.** What about the AII antagonistic effect [1] of the same molecule?
**A.** dose-dependent AII antagonistic effect

**Q.** For Cc1cnc(CO)n1Cc1ccc(-c2ccccc2-c2nnn(C(c3ccccc3)(c3ccccc3)c3ccccc3Cl)n2)cc1 [Compound 21, 5-Methyl-2-hydroxymethyl-1-[[2′-[[N-(2-chloro-triphenylmethyl)]tetrazol-5-yl]biphenyl-4-yl]methyl]imidazole], which “in vivo antihypertensive potency / activity, relative, in words” value [1] is on record?
**A.** less potent; also recorded: least active

**Q.** And the AII antagonistic effect [1]?
**A.** dose-dependent AII antagonistic effect

**Q.** Which “fold lower affinity for the AT1 receptor than that of Losartan” value (human AT1; from IC50 values) does the source give for CCCCc1cnc(CO)n1Cc1ccc(-c2ccccc2-c2nnn[nH]2)cc1 [Compound 22, 5-butyl-2-hydroxymethyl-1-[[2′-(1H-tetrazol-5-yl)biphenyl-4-yl]methyl]imidazole] here?
**A.** ~3 fold

**Q.** And the IC50 (human AT1; membranes containing AT1 receptors, competition with 0.1 nM [125I]Sar1,Ile8-Angiotensin II, read-out: IC50, affinity for the AT1 receptor)?
**A.** 0.0538 ± 0.0064 µM

**Q.** And the “in vivo antihypertensive potency / activity, relative, in words” value [1]?
**A.** highly potent; also recorded: more potent compared to 18; also recorded: slightly superior in activity; also recorded: most potent

**Q.** What about the AII antagonistic effect [1] of the same molecule?
**A.** dose-dependent AII antagonistic effect

**Q.** For Cc1cnc(CO)n1Cc1ccc(-c2ccccc2-c2nnn[nH]2)cc1 [Compound 23, 5-methyl-2-hydroxymethyl-1-[[2′-(1H-tetrazol-5-yl)biphenyl-4-yl]methyl]imidazole], which “in vivo antihypertensive potency / activity, relative, in words” value [1] is on record?
**A.** less potent

**Q.** And the AII antagonistic effect [1]?
**A.** dose-dependent AII antagonistic effect

**Q.** Which melting point does the source give for CCCCc1cncn1Cc1ccc(-c2ccccc2-c2nnnn2Cc2ccccc2)cc1 [Compound 24, 1-[[2′-[(N-benzyl)tetrazol-5-yl]biphenyl-4-yl]methyl]-5-butylimidazole] here?
**A.** 69 to 71 °C

**Q.** With CCCCc1cnc(CO)n1Cc1ccc(-c2ccccc2-c2nnnn2Cc2ccccc2)cc1 [Compound 25, 1-[[2′-[(N-benzyl)tetrazol-5-yl]biphenyl-4-yl]methyl]-5-butyl-2hydroxymethyl imidazole] as the molecule, how does the “in vivo antihypertensive potency / activity, relative, in words” value [1] read?
**A.** more potent compared to 18; also recorded: most potent

**Q.** With c1ccc(Cn2nnnc2-c2ccccc2-c2ccc(Cn3cnc4ccccc43)cc2)cc1 [Compound 28, 1-[[2′-[(N-benzyl)tetrazol-5-yl]biphenyl-4-yl]methyl]benzimidazole] as the molecule, how does the melting point read?
**A.** 62 to 64 °C

**Q.** And the “in vivo antihypertensive potency / activity, relative, in words” value [1]?
**A.** even less potent

**Q.** For OCc1nc2ccccc2n1Cc1ccc(-c2ccccc2-c2nnnn2Cc2ccccc2)cc1 [Compound 29, 1-[[2′-[(N-benzyl)tetrazol-5-yl]biphenyl-4-yl]methyl]-2-hydroxymethyl benzimidazole], which melting point is on record?
**A.** 62 to 63 °C

**Q.** What about the “in vivo antihypertensive potency / activity, relative, in words” value [1] of the same molecule?
**A.** even less potent

**Q.** And the AII antagonistic effect [1]?
**A.** dose-dependent AII antagonistic effect

**Q.** With OCc1nc2ccccc2n1Cc1ccc(-c2ccccc2-c2nnn[nH]2)cc1 [Compound 30, 2-hydroxymethyl-1-[[2′-(1H-tetrazol-5-yl)biphenyl-4-yl]methyl]benzimidazole] as the molecule, how does the “in vivo antihypertensive potency / activity, relative, in words” value [1] read?
**A.** even less potent; also recorded: least active

**Q.** And the AII antagonistic effect [1]?
**A.** dose-dependent AII antagonistic effect

**Q.** With [Sar^1, Lys^3, Glu^5] ANG II as the molecule, how does the “activity in the rat uterus assay” value (rat isolated uterus) read?
**A.** agonist activity

**Q.** What about the “activity in anesthesized rabbits” value (anesthesized rabbits) of the same molecule?
**A.** agonist activity
